Data published in patent publication US9790252B2, “2-fluorinated riboses and arabinoses and methods of use and synthesis” (CORNELL UNIVERSITY, priority 2009, dated 2017).

Key:
HEK293 cells = assay: Toxicity to HEK293 cells (MTT); assay type: cell-based; conditions: for 100 μM absorbance / 100 μM relative viability: HEK293, 100 μM; for 100 μM absorbance / 100 μM relative viability / 500 μM absorbance / 500 μM relative viability: 12 hours; for 100 μM absorbance / 500 μM absorbance: 570 nm; for 100 μM relative viability / 500 μM relative viability: control = 1; for 500 μM absorbance / 500 μM relative viability: HEK293, 500 μM; for EC50: HEK293, 2′-deoxy-2′-fluoro-nucleosides and nucleotides
Method: 1. HEK293 cells were seeded in 96-well plate at a density of 25,000 cells/well the day before the experiment starts;
2. After the cells reach 50˜60% confluency, media was taken out, and 100 μL of fresh media was added to each well;
3. F-derivatives were plated at 100 and 500 μM (in duplicates) concentrations;
4. After 12 hours' incubation at 37° C., the media was taken out, 100 μL of fresh media was added to each well along with 20 μL of 5 mg/mL of MTT solution (in PBS);
5. After 1.5 hours' incubation at 37° C., media was taken out and 100 μL of DMSO was added to each well, the plate was mixed on shaker for 5 mins;
(§1) Absorbance was measured at 570 nm.
(§2) Assay for Determining Toxicity to HEK293 and Neuro2A Cells • 1. HEK293 and Neuro2A cells were seeded in 96-well plate at a density of 25,000 cells/well the day before the experiment starts; • 2. After the cells reach 50˜60% confluency, media was taken out, and 100 μL of fresh media was added to each well; • 3. Cl-derivatives were plated at 100 and 500 μM (in duplicates) concentrations; • 4. After 12 hours' incubation at 37° C., the media was taken out, 100 μL of fresh media was added to each well along with 20 μL of 5 mg/mL of MTT solution (in PBS); • 5. After 2 hours' incubation at 37° C., media was taken out and 100 μL of DMSO was added to each well, the plate was mixed on shaker for 5 mins; • 6. Absorbance was measured at 570 nm.

Neuro2A cells = assay: Toxicity to Neuro2A cells (MTT); assay type: cell-based; conditions: for 100 μM absorbance / 100 μM relative viability / 500 μM absorbance / 500 μM relative viability: 12 hours; for 100 μM absorbance / 500 μM absorbance: 570 nm; for EC50: 2′-deoxy-2′-fluoro-nucleosides and nucleotides
Method: 6. Neuro2A cells were seeded in 96-well plate at a density of 25,000 cells/well the day before the experiment starts;
7. After the cells reach 50˜60% confluency, media was taken out, and 100 μL of fresh media was added to each well;
8. […]
9. After 12 hours' incubation at 37° C., the media was taken out, 100 μL of fresh media was added to each well along with 20 μL of 5 mg/mL of MTT solution (in PBS);
10. After 1.5 hours' incubation at 37° C., media was taken out and 100 μL of DMSO was added to each well, the plate was mixed on shaker for 5 mins;
as §1
as §2, with “Cl-derivatives were plated at 100 and 500 μM (in duplicates) concentrations; • 4.” left out

SirT2 = target: T1, SirT2 (Homo sapiens, UniProt Q8IXJ6); assay: SirT2 activity assay (HPLC of 2′- and 3′-AADPR); assay type: biochemical; conditions: at 1 mM; read-out: SirT2 % inhibited
T1 sequence (Q8IXJ6 1-389): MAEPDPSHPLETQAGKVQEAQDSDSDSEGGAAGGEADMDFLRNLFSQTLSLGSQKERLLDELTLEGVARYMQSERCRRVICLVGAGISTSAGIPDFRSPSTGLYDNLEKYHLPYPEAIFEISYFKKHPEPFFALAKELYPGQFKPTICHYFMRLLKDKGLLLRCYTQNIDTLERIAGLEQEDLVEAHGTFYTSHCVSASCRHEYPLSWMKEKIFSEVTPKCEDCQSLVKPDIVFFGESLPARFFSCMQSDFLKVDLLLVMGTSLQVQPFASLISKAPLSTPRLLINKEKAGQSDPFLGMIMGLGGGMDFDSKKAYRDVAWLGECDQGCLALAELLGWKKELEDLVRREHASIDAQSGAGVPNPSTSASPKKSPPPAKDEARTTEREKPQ
Method: (§3) Reactions containing 800 μM NAD^+, 500 μM H3 peptide, and 100 mM phosphate buffer at pH 7.5, with varying concentrations of 2′-deoxy-2′-fluoro-nucleosides or nucleotides were initiated by addition of SirT2 enzyme to a concentration of 16.6 μM. Reactions were incubated for 45 mins at 37° C. and quenched by addition of trifluoroacetic acid to pH 2. After centrifugation to remove precipitates, reactions were injected on HPLC for activity analysis. Production of 2′- and 3′-AADPR were analyzed at 260 nm.
as §3, with “SirT2 Activity Assay: Reactions containing” for “Reactions containing”, “concentrations of 2′-deoxy-2′-chloro-nucleosides were initiated” for “concentrations of 2′-deoxy-2′-fluoro-nucleosides or nucleotides were initiated”

SirT3 = target: T2, SirT3 (Homo sapiens, UniProt Q9NTG7); assay: SirT3 activity assay (HPLC of 2′- and 3′-AADPR); assay type: biochemical
T2 sequence (Q9NTG7 1-399): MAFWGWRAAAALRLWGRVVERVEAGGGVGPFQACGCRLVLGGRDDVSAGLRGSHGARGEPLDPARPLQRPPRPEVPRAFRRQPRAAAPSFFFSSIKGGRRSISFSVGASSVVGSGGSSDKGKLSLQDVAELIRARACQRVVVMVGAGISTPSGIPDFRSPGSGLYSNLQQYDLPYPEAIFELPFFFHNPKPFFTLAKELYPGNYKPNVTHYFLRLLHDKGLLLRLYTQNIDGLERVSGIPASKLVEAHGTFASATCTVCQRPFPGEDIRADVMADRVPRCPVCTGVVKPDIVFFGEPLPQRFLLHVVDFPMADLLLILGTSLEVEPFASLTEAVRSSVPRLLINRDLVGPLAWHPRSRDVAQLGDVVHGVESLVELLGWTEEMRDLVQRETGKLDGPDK
Method: as §3, with “SirT3” for “SirT2”, “13.9” for “16.6”, “2 hours” for “45 mins”
SirT3 Activity Assay: Reactions containing 800 μM NAD^+, 500 μM H3 peptide, and 100 mM phosphate buffer at pH 7.5, with varying concentrations of 2′-deoxy-2′-chloro-nucleosides were initiated by addition of SirT3 enzyme to a concentration of 13.9 μM. Reactions were incubated for 2 hours at 37° C. and quenched by addition of trifluoroacetic acid to pH 2. After centrifugation to remove precipitates, reactions were injected on HPLC for activity analysis. Production of 2′- and 3′-AADPR were analyzed at 260 nm.

[1] = MTT 2 hours, chloro-nucleosides
[2] = control = 1, chloro-nucleosides

| inhibition at 1000 µM (SirT2) | Compound | 100 μM absorbance (HEK293 cells; MTT 1.5 hours) | 100 μM relative viability (HEK293 cells) | 500 μM absorbance (HEK293 cells; MTT 1.5 hours) | 500 μM relative viability (HEK293 cells) | EC50 (HEK293 cells) | 100 μM absorbance (Neuro2A cells; MTT 1.5 hours) | 100 μM relative viability (Neuro2A cells; control = 1) | 500 μM absorbance (Neuro2A cells; MTT 1.5 hours) | 500 μM relative viability (Neuro2A cells; control = 1) | EC50 (Neuro2A cells) | further results |
| --- | --- | --- | --- | --- | --- | --- | --- | --- | --- | --- | --- | --- |
|  | 2′-deoxy-2′-fluoro-ribo-NAD^+ [ribo-F-NAD] | 1.4985 | 0.6592 | 1.384 | 0.6087 | 1020 µM | 1.6122 | 0.663 | 0.6455 | 0.265 | 350 µM |  |
|  | NC(=O)c1ccc[n+]([C@@H]2O[C@H](COP(=O)([O-])OP(=O)(O)OC[C@H]3O[C@@H](n4cnc5c(N)ncnc54)[C@H](O)[C@@H]3O)[C@@H](O)[C@@H]2F)c1 [ara-F-NAD, 2′-deoxy-2′-fluoro-arabino-NAD^+] | 1.523 | 0.6699 | 1.302 | 0.5729 | 1000 µM | 2.2482 | 0.924 | 1.7012 | 0.699 | 1500 µM |  |
|  | NC(=O)c1ccc[n+]([C@H]2O[C@H](CO)C(O)C2Cl)c1 (stereo partly drawn) [α-ara-Cl-NR, 1-(2′-deoxy-2′-chloro-arabinofuranosyl)-nicotinamide] |  |  |  |  |  |  |  |  |  |  | 100 μM absorbance (HEK293 cells; [1]): 2.09; 100 μM relative viability (HEK293 cells; chloro-nucleosides): 0.8601; 500 μM absorbance (HEK293 cells; [1]): 1.77; 500 μM relative viability (HEK293 cells; chloro-nucleosides): 0.7284; kills % of HEK293 cells (HEK293 cells; HEK293, at 500 μM): kills 30% at 500 μM; 100 μM absorbance (Neuro2A cells; [1]): 2.575; 100 μM relative viability (Neuro2A cells; [2]): 1.089; 500 μM absorbance (Neuro2A cells; [1]): 2.34; 500 μM relative viability (Neuro2A cells; [2]): 0.9894; toxicity to Neuro2A (in words) (Neuro2A cells; at 500 μM): not toxic at 500 μM |
| 50% | NC(=O)c1ccc[n+]([C@H]2O[C@H](CO)C(O)[C@@H]2Cl)c1 (stereo partly drawn) [α-ribo-Cl-NR, 1-(2-deoxy-2-chloro-D-ribofuranosyl)-nicotinamide] |  |  |  |  |  |  |  |  |  |  | inhibition at 1000 µM (SirT3; at 1 mM, read-out: SirT3 % inhibited): 86% |
| 43% | NC(=O)c1ccc[n+]([C@@H]2O[C@H](CO)C(O)[C@@H]2Cl)c1 (stereo partly drawn) [β-ribo-Cl-NR, 1-(2-deoxy-2-chloro-D-ribofuranosyl)-nicotinamide] |  |  |  |  |  |  |  |  |  |  | Ki (SirT3; 800 μM NAD+, 500 μM H3 peptide, pH 7.5, 2 hours at 37° C.): 82 µM |
